Columns and labels:
[1] = system: HMDM (endogenous human C3aR); type: cell-based; conditions: for EC50: primary human macrophages, 50,000/well, AlphaLISA p-ERK1/2, n = 4 donors, read-out: EC50 (pERK1/2), HMDM
Text: HMDMs were generated and cultured as previously described ([20]), with experiments approved by The University of Queensland Human Research Ethics Committee. Briefly, human buffy coat blood from anonymous healthy donors was obtained through the Australian Red Cross Blood Service (Brisbane, Australia). Human CD14+ monocytes were isolated from blood using Lymphoprep density centrifugation (STEMCELL, Melbourne, Australia) followed by CD14+ MACS magnetic bead separation (Miltenyi Biotec, Sydney, Australia). The isolated monocytes were differentiated for 7 days in Iscove’s Modified Dulbecco’s Medium supplemented with 10% FBS, 100 IU/ml penicillin, 100 μg/ml streptomycin and 15 ng/ml recombinant human macrophage colony stimulating factor (BioLegend, San Diego, USA) on 10 mm square dishes (Bio-strategy, Brisbane, Australia). Non-adherent cells were removed by washing with DPBS, and the adherent differentiated HMDMs were harvested by gentle scraping.
(§1) Ligand-induced ERK1/2 phosphorylation was assessed using the AlphaLISA Surefire Ultra p-ERK1/2 (Thr202/Tyr204) kit (PerkinElmer, Melbourne, Australia) following the manufacturer’s protocol as previously described ([18], [20], [22]). Briefly, CHO-K1, CHO-C3aR, CHO-C5aR1, HMDMs (50,000/well) or BMDMs (90,000/well) were seeded in tissue culture-treated 96-well plates (Corning, Corning, USA) for 24 h and serum-starved overnight. All ligand dilutions were prepared in serum-free medium (SFM) containing 0.1% BSA. For inhibition assays, cells were pre-treated with the following ligands (5 µM SB290157, or respective concentrations of hC3a, mC3a, hC5a, hTLQP-21, and mTLQP-21) or the solvent-only control for 30 min before agonist (hC3a, hTLQP-21 and mTLQP-21) addition. The concentration and identity of the ligands are described in detail in the figure legends. For stimulation, cells were treated with ligands at the indicated concentrations for 10 min at RT and then immediately lysed using AlphaLISA lysis buffer on a microplate shaker (450 rpm, 10 min). For the detection of phospho-ERK1/2 content, cell lysate (5 μL/well) was transferred to a 384-well ProxiPlate (PerkinElmer, Melbourne, Australia) and added to the donor and acceptor reaction mix (2.5 μL/well, respectively), followed by a 2-h incubation at RT in the dark. On a Tecan Spark 20M (Tecan, Männedorf, Switzerland), the plate was measured using standard AlphaLISA settings.
(§2) All experiments were conducted in triplicates and repeated on three separate occasions unless otherwise specified. Data was analysed using GraphPad software (Prism 9.1). Data from each individual repeat was normalised accordingly (as specified in the figure legends) before being combined and expressed as mean ± standard error of the mean (S.E.M.) unless otherwise described. For all dose-response studies, logarithmic concentration-response curves were plotted using combined data and analysed to determine the respective potency values. Statistical analysis was performed using two-way ANOVA with Dunnett’s post hoc analysis. Donor-matched comparisons were made for HMDM experiments. Differences were deemed significant when p < 0.05.
Figure 3 Agonistic and antagonistic activities of hTLQP-21 and mTLQP-21 in human monocyte-derived macrophages. Serum-starved HMDMs (50,000/well) were (A) stimulated with medium or respective ligands at the indicated concentrations for 10 min and then lysed, or (B) pre-treated with 5 µM SB290157 for 30 min prior to stimulation. (C) HMDMs were pre-treated with 10 μM hTLQP-21 or mTLQP-21 for 30 min before being stimulated with respective concentrations of human C3a. (D) HMDMs were pre-treated with 10 nM hC3a, 10 μM hTLQP-21 or mTLQP-21 for 30 min before being stimulated with the same concentrations of the above ligands for 10 min and then lysed. (E) HMDMs were pre-treated with 10 μM hTLQP-21 or mTLQP-21 for 30 min before being stimulated with respective concentrations of human C5a for 10 min and then lysed. […]

human C3aR = target: T1, human C3aR (Homo sapiens, UniProt Q16581); assay: phospho-ERK1/2 assay in CHO-C3aR cells; type: cell-based; conditions: n = 3-4; for EC50: CHO cells stably expressing human C3aR, serum-starved, AlphaLISA p-ERK1/2, combined data, read-out: EC50 (pERK1/2), CHO-C3aR
T1 sequence (Q16581 1-482): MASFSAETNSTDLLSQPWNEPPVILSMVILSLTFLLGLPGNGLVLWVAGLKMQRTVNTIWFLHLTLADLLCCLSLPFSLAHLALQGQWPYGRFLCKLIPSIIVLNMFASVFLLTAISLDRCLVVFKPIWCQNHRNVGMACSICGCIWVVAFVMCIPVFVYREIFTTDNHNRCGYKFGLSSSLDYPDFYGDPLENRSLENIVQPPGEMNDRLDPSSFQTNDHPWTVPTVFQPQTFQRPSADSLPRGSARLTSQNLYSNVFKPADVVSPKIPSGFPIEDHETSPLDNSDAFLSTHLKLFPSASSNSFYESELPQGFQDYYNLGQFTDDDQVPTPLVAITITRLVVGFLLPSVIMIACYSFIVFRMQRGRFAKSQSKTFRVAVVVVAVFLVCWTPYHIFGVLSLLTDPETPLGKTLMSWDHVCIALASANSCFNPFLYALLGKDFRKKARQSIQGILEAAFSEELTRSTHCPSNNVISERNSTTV
Procedure: (§3) Cell lines for this study were cultured as previously described ([20]). Non-transfected CHO-K1 cells or CHO cells stably expressing the human C3aR (CHO-C3aR; Product # ES-730-C, PerkinElmer, Melbourne, Australia) were maintained in Ham’s F12 medium containing 10% foetal bovine serum (FBS), 100 IU/ml penicillin and 100 μg/ml streptomycin, with additional 400 μg/ml G418 (In vivoGen, San Diego, USA) added for CHO-C3aR cell culture. HEK293 cells were maintained in DMEM medium containing 10% FBS, 100 IU/ml penicillin and 100 μg/ml streptomycin. All cell lines were maintained in T175 flasks (37°C, 5% CO2) and subcultured at 80-90% confluency using 0.05% trypsin-EDTA in DPBS.
as §1, §2
Figure 1 hTLQP-2 and mTLQP-21 activate ERK signalling in CHO-K1 and CHO-C3aR cells. hTLQP-21, mTLQP-21 and plasma-derived human C3a were tested in (A) non-transfected CHO-K1 or (B) CHO cells stably expressing human C3aR. CHO cells were serum-starved overnight and then stimulated with various ligands for 10 min before being lysed. The phospho-ERK1/2 content in the lysate was measured and expressed as fold-baseline before being combined. The maximum relative pERK1/2 activity induced by each ligand is shown in (C). Data represent mean ± S.E.M. of triplicate measurements from 3-4 independent experiments (n = 3-4). Two-way ANOVA with Dunnett’s post hoc analysis. *P < 0.05, ***P < 0.001, ****P < 0.0001. Ligand treated versus medium treated cells for each cell line.

[2] = system: CHO-K1 cells (endogenous C3aR); assay: phospho-ERK1/2 assay in non-transfected CHO-K1 cells; type: cell-based, Chinese hamster
Procedure: as §3
Ligand-induced ERK1/2 phosphorylation was assessed using the AlphaLISA Surefire Ultra p-ERK1/2 (Thr202/Tyr204) kit (PerkinElmer, Melbourne, Australia) following the manufacturer’s protocol as previously described ([18], [20], [22]). Briefly, CHO-K1, CHO-C3aR, CHO-C5aR1, HMDMs (50,000/well) or BMDMs (90,000/well) were seeded in tissue culture-treated 96-well plates (Corning, Corning, USA) for 24 h and serum-starved overnight. […] On a Tecan Spark 20M (Tecan, Männedorf, Switzerland), the plate was measured using standard AlphaLISA settings.
as §2, with “Statistical analysis was performed using two-way ANOVA with Dunnett’s post hoc analysis. Donor-matched comparisons were made for HMDM experiments. Differences were deemed significant when p < 0.05.” left out
Figure 1 hTLQP-2 and mTLQP-21 activate ERK signalling in CHO-K1 and CHO-C3aR cells. hTLQP-21, mTLQP-21 and plasma-derived human C3a were tested in (A) non-transfected CHO-K1 or (B) CHO cells stably expressing human C3aR. […] The phospho-ERK1/2 content in the lysate was measured and expressed as fold-baseline before being combined. […]

| Substance | logEC50 ± SE (pERK1/2), HMDM ([1]; HMDM, 10 min stimulation at RT, n = 3-4) | EC50 ([1]; 10 min stimulation at RT) [nM] | % C3a activity ± SE, HMDM ([1]; relative to hC3a, n = 3-4) [%] | maximum relative pERK1/2 activity, CHO-C3aR (human C3aR; 10 min, Figure 1C) [fold baseline] | EC50 (human C3aR; 10 min stimulation at RT) [nM] | logEC50 ± SE (pERK1/2), CHO-C3aR (human C3aR; CHO-C3aR, 10 min stimulation at RT) | % C3a activity ± SE, CHO-C3aR (human C3aR; efficacy relative to hC3a, fold baseline normalised) [%] | maximum relative pERK1/2 activity, CHO-K1 ([2]; 10 min, Figure 1C, n = 3-4) [fold baseline] | relative efficacy of ERK signalling in CHO-K1 versus CHO-C3aR ([2]; fold lower than in CHO-C3aR cells) [fold] | ERK1/2 phosphorylation, CHO-K1 ([2]; 10 min stimulation at RT, n = 3-4) |
| --- | --- | --- | --- | --- | --- | --- | --- | --- | --- | --- |
| C3a: Table 1 label: human C3a in CHO-C3aR and HMDM, recombinant mouse C3a in BMDM | -9.9 ± 0.1 | 0.11 | 100 ± 6.2 | 7.3 | 0.15 | -9.8 ± 0.1 | 100 ± 2.8 | 2.7 | 2.6 |  |
| hC3a: purified (plasma-derived) human C3a, purchased from Merck |  | 0.11 |  |  | 0.15 |  |  |  |  | significantly triggered ERK1/2 phosphorylation in CHO-K1 cells |

Source: paper PMC9909341, “TLQP-21 is a low potency partial C3aR activator on human primary macrophages” (Frontiers in Immunology, 2023)
